In patent US20190297890A1, “FUNGICIDAL COMPOUNDS AND MIXTURES FOR FUNGAL CONTROL IN CEREALS” (Dow AgroSciences LLC, priority 2016, published 2019):

Tested on: Zymoseptoria tritici (SEPTTR)
Assay: Field assessment of Zymoseptoria tritici (SEPTTR) in wheat, three field trials
Type: in vivo, Zymoseptoria tritici on winter wheat (TRZAW)
Settings: average over 3 field trials
From the text: Treatments consisted of the compound of Formula I and chlorothalonil either using individually or as a two-way mixture with the compound of Formula I. The compound of Formula I was applied with Agnique BP-420 (50% w/w at 0.3% v/v) at 75 and 150 g ai/ha and chlorothalonil (Bravo 500) was applied at 375 and 500 g ai/ha. Commercial standards used in the studies were Fluxapyroxad (Imtrex), applied at 100 g ai/ha, and Metconazole+Fluxapyroxad (Librax), applied at 161 g ai/ha.
Field Assessment of Zymoseptoria tritici (SEPTTR) in Wheat:
Fungicidal treatments containing the compound of Formula I and chlorothalonil, either individually or as a two way mixture, were assessed against leaf spot of wheat (SEPTTR) in three separate field trials. In the first trial, fungicidal treatments were applied at BBBCH37 (curative, 3% infection at application on L3) growth stage of winter wheat (TRZAW, Dinosor variety) under naturally occurring infection with SEPTTR. The treatments were part of an experimental trial designed as a randomized complete block with four replications and a plot of approximately 1×6 m. Treatments were applied at water volume of 200 L/ha, using a backpack plot sprayer (BKPCKENG, FLATFANA nozzle) and pressurized at 200 kPa.
In the second trial, fungicidal treatments were applied twice at BBCH32 (curative, 25% infection at application on L5) and BBBCH37-39 (5% infection at application on L3) growth stages of winter wheat (TRZAW, Consort variety) under naturally occurring infection with SEPTTR. The treatments were part of an experimental trial designed as a randomized complete block with four replications and a plot of approximately 1×2 m. Treatments were applied at water volume of 200 L/ha, using a backpack plot sprayer (BKPCKAIR, Flat fan nozzle) and pressurized at 210 kPa.
In the final trial, fungicidal treatments were applied twice at BBCH32 (protective, 15% infection at application on L6) and BBBCH37-39 (12% infection at application on L5) growth stages of winter wheat (TRZAW, Smaragd variety) under naturally occurring infection with SEPTTR. […]
Disease severity (percentage of visual diseased foliage on whole plot or leaves) in […] was recorded following EPPO PP1/26 guideline prescriptions. Area under the disease progress curve (AUDPC) was calculated for each plot in both trials using the sets of recorded severity data. Relative AUDPC (% control based on AUDPC) was calculated as percent of the nontreated control. Final results for the control of leaf spot of wheat by the compound of Formula I, chlorothalonil, and mixtures are reported as an average of the relative AUDPC calculated over all three field trials. […]

SMILES | SEPTTR % Control based on AUDPC (75 g ai/ha, with Agnique BP-420 (50% w/w at 0.3% v/v)) [%] | SEPTTR % Control based on AUDPC (150 g ai/ha, with Agnique BP-420 (50% w/w at 0.3% v/v)) [%] | SEPTTR % Control based on AUDPC (375 g ai/ha) [%] | SEPTTR % Control based on AUDPC (500 g ai/ha) [%]
N#Cc1ccc(Oc2ccc(C(F)(F)C(O)(Cn3nc[nH]c3=S)c3ccc(F)cc3F)nc2)cc1 (stereo not shown) [Compound I, 4-((6-(2-(2,4-difluorophenyl)-1,1-difluoro-2-hydroxy-3-(5-thioxo-4,5-dihydro-1H-1,2,4-triazol-1-yl)propyl)pyridin-3-yl)oxy)benzonitrile] | 61.2 | 72.2 |  | 
N#Cc1c(Cl)c(Cl)c(Cl)c(C#N)c1Cl [Chlorothalonil, tetrachloroisophthal-onitrile] |  |  | 31.8 | 37.8
